From patent US20150126467A1, “USE OF ALGINATE OLIGOMERS TO ENHANCE THE EFFECTS OF ANTIFUNGAL AGENTS” (AlgiIPharma AS, priority 2011, published 2015)
In brackets after ≈: the same amount, converted by molar mass. Like-named read-outs stand apart in the source and are kept apart here.

Experiments:
Candida albicans = assay: Robotic MIC assay with asthma/COPD medicaments (Example 5); assay type: cell-based; settings: for effect on growth of C. albicans: at the given concentrations, data not shown; for influence on the MIC values of nystatin or amphotericin B in combination with OligoG CF5/20: ipratropium bromide and salbutamol at 0.01 mM and 1 mM, budesonide at 0.01 mM, formoterol at 0.5 mM
Procedure: A robotic MIC Assay was performed as follows. OligoG CF-5/20 were dissolved in medium (Mueller-Hinton broth or M19 broth depending on experiment) to 1.25 times of the desired assay concentrations (2, 6 and 10%). The antifungal agents under test were dissolved in medium without OligoG CF-5/20 and in medium with OligoG CF-5/20 at a concentration of 1.25 times the highest desired assay concentrations. For experiments where the effect of adding different concentrations of Na^+ was investigated, NaCl was dissolved in medium to the desired concentrations (10, 30 and 50 mM).
Two-fold serial dilutions of antifungal agents were made in medium with different concentrations of OligoG CF-5/20, and the solutions were placed in four parallel wells in Nunc 384-well micro plates (30 μl per well in Nunc 242757 microplates). A group of 8 wells with no addition of antifungal agents for each OligoG CF-5/20 concentration was included on each microplate as growth reference. To each well in the 384-well assay plates was added 7.5 μl of medium inoculated with a frozen stock culture of Candida albicans (strain CCUG 39343).
The micro plates were placed in plastic bags and incubated without shaking at 34° C. The optical density at 600 nm in the microwells was measured after approximately 13, 18, 24 and 34 hours of incubation, and the relative growth yield in each well was calculated based on the growth in the reference groups.
The robotic assay described in Example 1 was employed in this Example. […] The concentration utilized for the different components were based on information from Manocha et al. (2006).
In this assay only Mueller-Hinton broth was used since this is the medium specified for standardized MIC assays (Jorgensen et al., 1999).

[1] = system: Aspergillus flavus CCUG 28296; assay: Robotic MIC assay, Aspergillus (Example 4); assay type: cell-based; settings: Aspergillus flavus, CCUG23451 / CCUG28296, 48 h, Mueller-Hinton broth, read-out: Minimum Inhibitory Concentration (MIC)
Procedure: (§1) Aspergillus sp. was grown at 30° C. for 96 h on YM-agar. Spores and aerial mycelium was cut out from the agar, suspended in 1 ml YM-broth and dispersed with glass beads (1 mm) in a mini bead beater for 2 min. Glycerol was added to the suspension to 10% and frozen at −80° C.
(§2) Each batch of frozen stock culture was then characterized in separate growth experiments using Mueller-Hinton broth to determine the minimum amount of inoculum giving satisfactory growth after 48 h under the conditions relevant for the MIC assay. This inoculation procedure is used in order to reduce day to day variation in bioassays.
(§3) Robotic minimum inhibitory concentration (MIC) assay was performed as follows. OligoG CF-5/20 was dissolved in medium (Mueller-Hinton broth) to 1.25 times of the desired assay concentrations (2, 6 and 10%). […].
(§4) Two-fold serial dilutions of antifungal agents were made in medium with different concentrations of OligoG CF-5/20, and the solutions were placed in four parallel wells in Nunc 384-well micro plates (30 μl per well in Nunc 242757 microplates). A group of 8 wells with no addition of antifungal agents for each OligoG CF-5/20 concentration was included on each micro plate as growth reference. Each well in the 384-well assay plates was added 7.5 μl of the MH medium inoculated with frozen stock culture of the relevant strains.
(§5) The microplates were placed in plastic bags and incubated without shaking at 34° C. The optical density at 600 nm in the microwells was measured after approximately 24 and 48 hours of incubation. […]

[2] = system: Aspergillus fumigatus CCUG 17460; assay: Robotic MIC assay, Aspergillus (Example 4); assay type: cell-based; settings: Aspergillus fumigatus, CCUG17460, 48 h, Mueller-Hinton broth, read-out: Minimum Inhibitory Concentration (MIC)
Procedure: as §1, §2, §3, §4, §5

[3] = system: Aspergillus niger CCUG 18919; assay: Robotic MIC assay, Aspergillus (Example 4); assay type: cell-based; settings: Aspergillus niger, CCUG18919, 48 h, Mueller-Hinton broth, read-out: Minimum Inhibitory Concentration (MIC)
Procedure: as §1, §2, §3, §4, §5

[4] = system: various Aspergillus species; assay: Robotic MIC assay, summary over species (Example 4); assay type: cell-based; settings: Aspergillus species tested
Procedure: as §1, §2, §3, §4, §5

[5] = cited from earlier work

Compound: CC(C)[N+]1(C)[C@@H]2CC[C@H]1C[C@@H](OC(=O)C(CO)c1ccccc1)C2.O.[Br-] (stereo partly shown) [Ipratropium bromide, ipratropium bromide monohydrate]
- effect on growth of C. albicans (Candida albicans): did not affect growth
- influence on the MIC values of nystatin or amphotericin B in combination with OligoG CF5/20 (Candida albicans): do not significantly influence

Compound: C[C@@H](c1ncncc1F)[C@](O)(Cn1cncn1)c1ccc(F)cc1F [Voriconazole, voriconazole]
- MIC ([1]; A. flavus CCUG 23451, 0% OligoG): 0.0625 µg/mL (≈ 0.179 µM)
- MIC ([1]; A. flavus CCUG 23451, 2% OligoG): 0.0625 µg/mL (≈ 0.179 µM)
- MIC ([1]; A. flavus CCUG 23451, 6% OligoG): < 0.0312 µg/mL
- MIC ([1]; A. flavus CCUG 23451, 10% OligoG): < 0.0312 µg/mL
- MIC ([2]; A. fumigatus CCUG 17460, 0% OligoG): 0.125 µg/mL (≈ 0.358 µM)
- MIC ([2]; A. fumigatus CCUG 17460, 2% OligoG): 0.125 µg/mL (≈ 0.358 µM)
- MIC ([2]; A. fumigatus CCUG 17460, 6% OligoG): 0.0625 µg/mL (≈ 0.179 µM)
- MIC ([2]; A. fumigatus CCUG 17460, 10% OligoG): 0.0312 µg/mL (≈ 0.0895 µM)
- MIC ([3]; A. niger CCUG 18919, 0% OligoG): 0.25 µg/mL (≈ 0.716 µM)
- MIC ([3]; A. niger CCUG 18919, 2% OligoG): 0.0625 µg/mL (≈ 0.179 µM)
- MIC ([3]; A. niger CCUG 18919, 6% OligoG): < 0.0312 µg/mL
- MIC ([3]; A. niger CCUG 18919, 10% OligoG): < 0.0312 µg/mL
- effect of addition of OligoG CF-5/20 on MIC values [4]: reduction in MIC values

Compound: CCCC1O[C@@H]2C[C@H]3[C@@H]4CCC5=CC(=O)C=C[C@]5(C)[C@H]4[C@@H](O)C[C@]3(C)[C@]2(C(=O)CO)O1 (stereo partly shown) [budesonide]
- solubility in water [5]: limited solubility in water

Compound: CC(C)(C)NCC(O)c1ccc(O)c(CO)c1 (stereo not shown) [salbutamol]
- solubility in water [5]: soluble in water
- effect on growth of C. albicans (Candida albicans): did not affect growth
- influence on the MIC values of nystatin or amphotericin B in combination with OligoG CF5/20 (Candida albicans): do not significantly influence
